From US8143282B2, “Heterocyclic compounds” (S*BIO Pte Ltd., priority 2005, dated 2012)
pIC50: −log10 of the molar value.

Experiments:
[1] = biological target: T1, HDAC1 enzyme (Homo sapiens, UniProt Q13547); test: In vitro HDAC assay for determination of IC50 values (BIOMOL fluorescent-based HDAC activity assay); format: biochemical
T1 construct: Amplification of human HDAC1 coding region from this cDNA library was cloned separately into the baculovirus expression pDEST20 vector; made in house; host or cells: SF9 insect cells, pDEST20-HDAC1 baculovirus
Method: Human cDNA library was prepared using cultured SW620 cells. Amplification of human HDAC1 coding region from this cDNA library was cloned separately into the baculovirus expression pDEST20 vector (GATEWAY Cloning Technology, Invitrogen Pte Ltd). The pDEST20-HDAC1 construct was confirmed by DNA sequencing. Recombinant baculovirus was prepared using the Bac-To-Bac method following the manufacturer's instruction (Invitrogen Pte Ltd).
Expression of GST-HDAC1 was done by infecting SF9 cells (Invitrogen Pte Ltd) with pDEST20-HDAC1 baculovirus at MOI=1 for 48 h. Soluble cell lysate was incubated with pre-equilibrated Glutathione Sepharose 4B beads (Amersham) at 4° C. for 2 h. The beads were washed with PBS buffer for 3 times. The GST-HDAC1 protein was eluted by elution buffer containing 50 mM Tris, pH8.0, 150 mM NaCl, 1% Triton X-100 and 10 mM or 20 mM reduced Glutathione. The purified GST-HDAC1 protein was dialyzed with HDAC storage buffer containing 10 mM Tris, pH7.5, 100 mM NaCl and 3 mM MgCl2. 20% Glycerol was added to purified GST-HDAC1 protein before storage at −80° C.
The assay has been carried out in 96 well format and the BIOMOL fluorescent-based HDAC activity assay has been applied. […] Flur de lys Developer was added and the reaction was incubated for 10 min. Briefly, deacetylation of the substrate sensitizes it to the developer, which then generates a fluorophore. The fluorophore is excited with 360 nm light and the emitted light (460 nm) is detected on a fluorometric plate reader (Tecan Ultra Microplate detection system, Tecan Group Ltd.).
The analytical software, Prism 4.0 (GraphPad Software Inc) has been used to generate IC50 from a series of data.

[2] = tested on: Colo205 cells; test: Cell-based proliferation assay for GI50 (CyQUANT), Colo205; conditions: Homo sapiens, COLO 205, 96 h treatment, read-out: Cellular or Growth Inhibition Activity in Colo205 cells, GI50
Method: Human colon cancer cell lines (Colo205, HCT116), Ovarian cancer cell line (A2780), Hepatoma cell line (HEP3B), Prostate cancer cell line (PC3) were obtained from ATCC or ECACC. Colo205 cells were cultivated in RPMI 1640 containing 2 mM L-Glutamine, 5% FBS, 1.0 mM Na Pyruvate, 1 U/ml of penicillin and 1 μg of streptomycin. HCT116 cells were cultivated in McCoy's containing RPMI 1640 containing 2 mM L-Glutamine, 5% FBS, 1 U/ml of penicillin and 1 μg of streptomycin. A2780 cells were cultivated in RPMI 1640 containing 2 mM L-Glutamine, 5% FBS, 1 U/ml of penicillin and 1 μg of streptomycin. HEP3B cells were cultivated in EMEM containing 2 mM L-glutamine, 5% FBS, 1% non essential amino acid, 1 mM Na Pyruvate, 1 U/ml of penicillin and 1 μg of streptomycin. PC3 cells were cultivated in F12K, 2 mM L-glutamine, 5% FBS, 1 U/ml of penicillin and 1 μg of streptomycin. PC3, Colo205, and HCT116 cells were seeded in 96-wells plate at 1000, 5000 and 6000 cells per well respectively. A2780 and HEP3B cells were seeded in 96-wells plate at 4000 cells per well respectively. The plates were incubated at 37° C., 5% CO2, for 24 h. Cells were treated with compounds at various concentrations for 96 h. Cell growth was then monitored using CyQUANT® cell proliferation assay (Invitrogen Pte Ltd). Dose response curves were plotted to determine GI50 values for the compounds using XL-fit (ID Business Solution, Emeryville, Calif.). GI50 is defined as the concentration of compound required for 50% inhibition of cell growth.

T1 sequence (Q13547 whole entry): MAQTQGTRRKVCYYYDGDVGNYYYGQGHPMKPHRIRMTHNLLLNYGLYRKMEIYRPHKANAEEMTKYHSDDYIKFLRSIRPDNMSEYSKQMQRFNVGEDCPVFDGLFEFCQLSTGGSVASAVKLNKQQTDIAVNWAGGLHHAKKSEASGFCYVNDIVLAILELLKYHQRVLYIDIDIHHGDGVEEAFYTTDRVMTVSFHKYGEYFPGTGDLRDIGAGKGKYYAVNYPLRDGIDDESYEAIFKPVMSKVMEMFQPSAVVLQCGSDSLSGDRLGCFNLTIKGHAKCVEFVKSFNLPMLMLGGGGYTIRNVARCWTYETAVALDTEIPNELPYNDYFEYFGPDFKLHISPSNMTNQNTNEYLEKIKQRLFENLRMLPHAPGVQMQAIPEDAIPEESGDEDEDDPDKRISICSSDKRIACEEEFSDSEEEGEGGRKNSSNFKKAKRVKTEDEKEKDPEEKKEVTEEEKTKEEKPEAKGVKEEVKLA

Row | pIC50 [1] | GI50 [2] | SMILES
1 | 7.15 | 1320 nM | CCN(CC)CCn1c(CNC(=O)C(C)(C)C)nc2cc(/C=C/C(=O)NO)ccc21 [Compound 61, 3-{1-(2-Diethylamino-ethyl)-2-[(2,2-dimethyl-propionylamino)-methyl]-1H-benzoimidazol-5-yl}-N-hydroxy-acrylamide]
2 | 7.27 | 2600 nM | CCCC(=O)NCc1nc2cc(/C=C/C(=O)NO)ccc2n1CCN(CC)CC [Compound 62, N-[1-(2-Diethylamino-ethyl)-5-(2-hydroxycarbamoyl-vinyl)-1H-benzoimidazol-2-ylmethyl]-butyramide]
3 | 7.00 | 730 nM | CN(C)CCn1c(CCC(C)(C)C)nc2cc(/C=C/C(=O)NO)ccc21 [Compound 64, 3-[2-(3,3-Dimethyl-butyl)-1-(2-Dimethylamino-ethyl)-1H-benzoimidazol-5-yl]-N-hydroxy-acrylamide]
4 | 6.47 | 8800 nM | CN(C)CCn1c(CC(F)(F)F)nc2cc(/C=C/C(=O)NO)ccc21 [Compound 66, 3-[1-(2-Dimethylamino-ethyl)-2-(2,2,2-trifluoro-ethyl)-1H-benzoimidazol-5-yl]-N-hydroxy-acrylamide]
5 | 7.17 | 7000 nM | CCCCc1nc2cc(/C=C/C(=O)NO)ccc2n1C1CCNCC1 [Compound 70, 3-(2-Butyl-1-piperidin-4-yl-1H-benzoimidazol-5-yl)-N-hydroxy-acrylamide]
6 | 7.77 | 160 nM | CCCCC/C=C\CCc1nc2cc(/C=C/C(=O)NO)ccc2n1CCNC [Compound 72, N-Hydroxy-3-[1-(2-methylamino-ethyl)-2-non-3-enyl-1H-benzoimidazol-5-yl]-acrylamide]
7 | 7.59 | 230 nM | CC/C=C\CCCCCc1nc2cc(/C=C/C(=O)NO)ccc2n1CCNC [Compound 73, N-Hydroxy-3-[1-(2-methylamino-ethyl)-2-non-6-enyl-1H-benzoimidazol-5-yl]-acrylamide]
8 | 7.30 | 1200 nM | CCCCCc1nc2cc(/C=C/C(=O)NO)ccc2n1CCNC [Compound 75, N-Hydroxy-3-[1-(2-methylamino-ethyl)-2-pentyl-1H-benzoimidazol-5-yl]-acrylamide]
9 | 7.74 | 290 nM | CCCCCCCCc1nc2cc(/C=C/C(=O)NO)ccc2n1CCNC [Compound 76, N-Hydroxy-3-[1-(2-methylamino-ethyl)-2-octyl-1H-benzoimidazol-5-yl]-acrylamide]
10 | 7.59 | 670 nM | CCCCCCCCc1nc2cc(/C=C/C(=O)NO)ccc2n1CCN [Compound 77, 3-[1-(2-Amino-ethyl)-2-octyl-1H-benzoimidazol-5-yl]-N-hydroxy-acrylamide]
11 | 6.92 | 1000 nM | CCCCc1nc2cc(/C=C/C(=O)NO)ccc2n1C1CCN(C)C1 (stereo not drawn) [Compound 81, 3-[2-Butyl-1-(1-methyl-pyrrolidin-3-yl)-1H-benzoimidazol-5-yl]-N-hydroxy-acrylamide]
12 | 7.20 | 1030 nM | CCCCCc1nc2cc(/C=C/C(=O)NO)ccc2n1CCN(CC)CCOC [Compound 84, 3-(1-{2-[Ethyl-(2-methoxy-ethyl)-amino]-ethyl}-2-pentyl-1H-benzoimidazol-5-yl)-N-hydroxy-acrylamide]

Further lines, the compound ahead of its results:

Row | SMILES | pIC50 [1] | GI50 [2]
13 | CCN(CC)CCn1c(CC(C)CC(C)(C)C)nc2cc(/C=C/C(=O)NO)ccc21 (stereo not drawn) [Compound 41, 3-[1-(2-Diethylamino-ethyl)-2-(2,4,4-trimethyl-pentyl)-1H-benzoimidazol-5-yl]-N-hydroxy-acrylamide] | 7.21 | 920 nM
14 | CCCc1nc2cc(/C=C/C(=O)NO)ccc2n1CCN(CC)CC [Compound 42, 3-[1-(2-Diethylamino-ethyl)-2-propyl-1H-benzoimidazol-5-yl]-N-hydroxy-acrylamide] | 6.82 | 980 nM
15 | CCCCc1nc2cc(/C=C/C(=O)NO)ccc2n1CCN(C(C)C)C(C)C [Compound 43, 3-[2-Butyl-1-(2-diisopropylamimo-ethyl)-1H-benzoimidazol-5-yl]-N-hydroxy-acrylamide] | 6.48 | 1860 nM
16 | CCN(CC)CCn1c(CCSC)nc2cc(/C=C/C(=O)NO)ccc21 [Compound 45, 3-[1-(2-Diethylamino-ethyl)-2-(2-methylsulfanyl-ethyl)-1H-benzoimidazol-5-yl]-N-hydroxy-acrylamide] | 7.28 | 540 nM
17 | CCCCc1nc2cc(/C=C/C(=O)NO)ccc2n1CCCNC(C)C [Compound 47, 3-[2-Butyl-1-(3-isopropylamino-propyl)-1H-benzoimidazol-5-yl]-N-hydroxy-acrylamide] | 6.68 | 3600 nM
18 | CCCCc1nc2cc(/C=C/C(=O)NO)ccc2n1C1CCN(Cc2ccccc2)CC1 [Compound 48, 3-[1-(1-Benzyl-piperidin-4-yl)-2-butyl-1H-benzoimidazol-5-yl]-N-hydroxy-acrylamide] | 6.37 | 780 nM
19 | C=CCCc1nc2cc(/C=C/C(=O)NO)ccc2n1CCNCC [Compound 49, 3-[2-But-3-enyl-1-(2-ethylamino-ethyl)-1H-benzoimidazol-5-yl]-N-hydroxy-acrylamide] | 6.96 | 1750 nM
20 | CC(Cc1nc2cc(/C=C/C(=O)NO)ccc2n1CCN(C)C)CC(C)(C)C (stereo not drawn) [Compound 51, 3-[1-(2-Dimethylamino-ethyl)-2-(2,4,4-trimethyl-pentyl)-1H-benzoimidazol-5-yl]-N-hydroxy-acrylamide] | 7.18 | 260 nM
21 | CC(C)NCCn1c(CCC(F)(F)F)nc2cc(/C=C/C(=O)NO)ccc21 [Compound 53, N-Hydroxy-3-[1-(2-isopropylamino-ethyl)-2-(3,3,3-trifluoro-propyl)-1H-benzoimidazol-5-yl]-acrylamide] | 7.00 | 1050 nM
22 | CC/C=C\CCc1nc2cc(/C=C/C(=O)NO)ccc2n1CCN(C)C [Compound 54, 3-[1-(2-Dimethylamino-ethyl)-2-hex-3-enyl-1H-benzoimidazol-5-yl]-N-hydroxy-acrylamide] | 7.32 | 460 nM
23 | CC(Cc1nc2cc(/C=C/C(=O)NO)ccc2n1CCN)CC(C)(C)C (stereo not drawn) [Compound 55, 3-[1-(2-Amino-ethyl)-2-(2,4,4-trimethyl-pentyl)-1H-benzoimidazol-5-yl]-N-hydroxy-acrylamide] | 7.43 | 910 nM
24 | CCCCCCCC(Cc1nc2cc(/C=C/C(=O)NO)ccc2n1CCN)OC (stereo not drawn) [Compound 56, 3-[1-(2-Amino-ethyl)-2-(2-methoxy-nonyl)-1H-benzoimidazol-5-yl]-N-hydroxy-acrylamide] | 7.54 | 900 nM
25 | CCN(CC)CCn1c(CCNC(=O)CC(C)(C)C)nc2cc(/C=C/C(=O)NO)ccc21 [Compound 59, N-{2-[1-(2-Diethylamino-ethyl)-5-(2-hydroxycarbamoyl-vinyl)-1H-benzoimidazol-2-yl]-ethyl}-3,3-dimethyl-butyramide] | 7.11 | 2280 nM
26 | CCN(CC)CCn1c(CCNC(=O)C(C)(C)C)nc2cc(/C=C/C(=O)NO)ccc21 [Compound 60, 3-{1-(2-Diethylamino-ethyl)-2-[2-(2,2-dimethyl-propionylamino)-ethyl]-1H-benzoimidazol-5-yl}-N-hydroxy-acrylamide] | 7.00 | 2480 nM
27 | CCCCCc1nc2cc(/C=C/C(=O)NO)ccc2n1CCN(C)CC [Compound 79, 3-{1-[2-(Ethyl-methyl-amino)-ethyl]-2-pentyl-1H-benzoimidazol-5-yl}-N-hydroxy-acrylamide] | 7.40 | 450 nM
